From patent US20180327364A1, “MTOR INHIBITORS AND METHODS OF USE THEREOF” (Brandeis University, priority 2015, published 2018)

What was measured:
Type in all cases: cell-based
[1] = system: p70s6k phosphorylation (mTORC1); experiment: p70s6k phosphorylation immunoblot in HEK-293T cells
Protocol: (§1) Quantification of western blots was performed with ImageJ. Cells were lysed in RIPA buffer (1% NP-40, 1% NaDeoxycholate, 0.1% SDS, 10 mM TrisCl, 10 mM β-glycerophosphate, 10 mM Na pyrophosphate, 50 mM NaF, 200 μM Na vanadate, 1 mM EDTA, 500 μM EGTA, 1% benzonase, and supplemented with complete (Roche Diagnostics) protease inhibitors).

eIF2α = eIF2α phosphorylation immunoblot in HEK-293T cells; conditions: 1 h; tunicamycin 5 μg/mL, thapsigargin 500 nM; compared with vehicle
Protocol: as §1

[2] = system: protein translation in HEK-293T cells; experiment: 35S-methionine/cysteine incorporation translation assay; conditions: Homo sapiens, HEK-293T, 4 h treatment then 1 h labeling
Protocol: 80,000 cells/well of HEK-293T cells were plated into 24 well plates 24 h before the assay. Cells were treated with indicated concentration of compound for 4 h. After 4 h, the media was removed and replaced with DMEM without methionine and cysteine (Lifetechnologies) supplemented with 0.2 mCi/mL EXPRESS [^35S] protein labeling mix (PerkinElmer), 10% dialyzed FBS (Pierce), 1× glutaMax (Gibco), 100 U/mL penicillin 100 μg/mL streptomycin (Gibco), 1 mM sodium pyruvate (Lifetechnologies), and the indicated concentration of compound. After 1 h, this media was removed, cells were washed with ice cold PBS, and lysed with low deoxycholate RIPA buffer (10 mM Tris-Cl, 1% NP-40, 0.5% Na Deoxycholate, 0.1% SDS, 140 mM NaCl, 1 mM EDTA, 500 μM EGTA, 1× Roche Complete protease inhibitors, 1:100 Benzonase, and at pH 8.0). Lysate was centrifuged at maximum speed for 20 m at 4° C. The concentration was measured by Bradford assay. 10 μg of lysate was added to […] ice cold 1 mg/mL BSA with 0.02% Na Azide. 1 mL of ice cold 10% TCA was added, the solutions were mixed and incubated on ice for 0.5 h. These mixtures were vacuum filtered onto GF/C Whatman glass microfiber filters. The filters were washed with 2×5 mL of 10% TCA, then 2×3 mL ethanol. The filters were then dried for a 0.5 h. The filters were placed into scintillation vials with 5 mL of scintillation fluid and read on a scintillation counter.

firefly luciferase = experiment: Luciferase assay in stably transduced luciferase HEK-293T cells; conditions: 100 μM Cbz-B3A, 4 h, anti-HA immunoblot
NCI-60 cell lines = experiment: NCI-60 DTP Human Tumor Cell Line Screen, all cell lines; conditions: 10 μM, 48 h
Protocol: Screen was conducted as previously described, performed at Developmental Therapeutics Program NCI/NIH.

CC(C)(C)OC(=O)/N=C(\NCCC[C@H](NC(=O)OC(C)(C)C)C(=O)NCCCCCCNC(=O)OCc1ccccc1)NC(=O)OC(C)(C)C [Cbz-B3A]
p70s6k Ser371 phosphorylation ([1]; 10 μM, 4 h): did not inhibit phosphorylation
EC50 ([1]; Homo sapiens, HEK-293T, 4 h, read-out: EC50 of inhibition of p70s6k Thr389 phosphorylation): ~5 µM
phosphorylation retained at Thr389 of p70s6k ([1]; at maximum inhibition): approximately 30%
eIF2α phosphorylation (eIF2α): no increase in eIF2α phosphorylation
EC50 ([2]; read-out: EC50 of inhibition of 35S-methionine/cysteine incorporation): ~3 µM
inhibition at 10 µM ([2]; saturating concentration (Cbz-B3A 10 μM), read-out: maximal inhibition of translation (35S-methionine/cysteine incorporation)): 68%
decrease in amount of luciferase protein (firefly luciferase): approximately 40%
average decrease in proliferation, all cell lines (NCI-60 cell lines): 29%
